Here are results for four compounds from US20210308270A1, “SYSTEMS AND METHODS FOR INTRACELLULAR DELIVERY VIA NON-CHARGED SEQUENCE-DEFINED CELL-PENETRATING OLIGOMERS” (priority 2018, published 2021).

Experiment [1] deals with Listeria monocytogenes DP-L1942. In words: In vitro intracellular infection assay in J774 cells. Type of experiment: cell-based. As for the experimental part:
In vitro Intracellular Infection Assay: 100,000 cells/well J774 cells in DMEM supplemented with 10% FBS without pen-strep, referred to as normal growth media, were plated in a 24-well plate and incubated for 20-24 hrs before use. Listeria monocytogenes DP-L1942 strain was taken from an exponentially growing culture (OD600 of ˜0.5) and washed with 1×PBS pH 7.4. Macrophages were infected with 200,000 bacteria in normal growth media to achieve an initial infection of approximately two bacteria per cell (MOI=2). The cells were washed twice with PBS at 30 mins after infection and supplemented with normal growth media. At 1-hr post infection, gentamicin (50 μg/ml) was added to eliminate all extracellular bacteria. The cells were then washed twice with PBS after 30 mins of incubation and supplemented with normal growth media. At 2-hr post infection, 30 μM of CPOT-vancomycin conjugates were added to the infected cells and incubated for 4 hrs. At the end of the incubation period, macrophages were washed twice with PBS, and the cells were lysed with 0.1% Triton-X in PBS. The cell lysate was diluted 10× in Brain Heart Infusion (BHI) broth and plated in a 96-well plate. The plate was incubated at 37° C. with agitation. The growth curve kinetics were generated from the absorbance measurements at 600 nm taken every 5 mins for 14 hrs.

Experiment [2] concerns MC-3T3-E1 cells. The experiment in a line: Uptake of fluorescein cargo by oligoTEAs, flow cytometry, MC-3T3-E1. It is filed as cell-based. The following applies: 5 μM, 1 hr. As for the experimental part: (§1) After the incubation, cells were washed with PBS. […] Results were analyzed by FlowJo software.
Background: Flow cytometry measures light scatter and fluorescence of single cells or particles in a stream.

Experiment [3] has as its system HeLa cells. In words: Cellular uptake of fluorescein conjugates by flow cytometry, HeLa. Type of experiment: cell-based, human. As for the experimental part: (§2) After the incubation, cells were washed with PBS and incubated with 200 μL of Trypsin EDTA at 37° C. for 3-5 mins. 1 mL of DMEM with 10% FBS was then added to quench the trypsin. […] Results were analyzed by FlowJo software.
Dose-dependent uptake: The standard uptake procedure was followed, except that cells were treated with the labeled oligoTEAs at 0.5 μM to 5 μM. All other conditions remained the same.
Uptake kinetics study: The standard uptake procedure was followed, except that cells were treated with fluorescein-PEO^2-B at 2.5 μM for 15-120 mins (minutes). After the incubation, the plate was cells were washed with PBS and incubated with 200 μL of Trypsin EDTA at 37° C. for 3-5 mins. All other conditions remained the same.
(§3) Mechanism of uptake: The standard uptake procedure was followed with the following changes for each mechanistic condition. Readings were taken on a FACSAria™ Fusion flow cytometry analyzer (Becton Dickinson).
Uptake with and without serum: Prior to treatment, cells were washed with PBS. Cells were then incubated with fluorescein conjugates in either DMEM with 10% FBS or Opti-MEM at 37° C. for 1 hr. Following treatment, cells were washed with PBS before addition of Trypsin EDTA.
Pretreatment with heparin sulfate: Prior to treatment, fluorescein conjugates were incubated with different concentrations of heparin sulfate and DMEM with 10% FBS in Eppendorf® tubes for 30 mins at 37° C. Cells were washed with PBS, and incubated with the treatment solutions at 37° C. for 1 hr. Following treatment, cells were washed with PBS once more before addition of Trypsin EDTA.
(§4) Temperature dependence: Prior to treatment, fluorescein conjugates were incubated with DMEM with 10% FBS in Eppendorf® tubes for 30 mins at 37° C. or 4° C. Cells were washed with warm (37° C.) or cool (4° C.) PBS for 5 mins. Pre-warmed or pre-cooled fluorescein conjugate solution was then added, and cells were incubated at 37° C. or refrigerated at 4° C. for 1 hr. Following treatment, cells were washed with PBS before addition of Trypsin EDTA.
(§5) Uptake with and without NaN3 and 2-deoxy-D-glucose (DOG): Prior to treatment, cells were washed with PBS. Cells were then incubated with 10 mM NaN3 and 25 mM DOG in DMEM with 10% FBS at 37° C. for 1 hr. Fluorescein conjugates were added, and cells were incubated at 37° C. for another hour. Following treatment, cells were washed with PBS before addition of Trypsin EDTA.
Uptake with and without chlorpromazine (CPM): Prior to treatment, cells were washed with PBS. Cells were then incubated with 5 μg/mL (or 15.7 μM) CPM in DMEM with 10% FBS at 37° C. for 1 hr. Fluorescein conjugates were added, and cells were incubated at 37° C. for another hour. Following treatment, cells were washed with PBS before addition of Trypsin EDTA. […]

For experiment [4], the system named is SKOV-3 cells. In words: Cellular uptake of fluorescein conjugates by flow cytometry, SKOV-3. Type of experiment: cell-based, human. How it is done: as §2, §3, §4, §5
(§6) Uptake with and without chlorpromazine (CPM): Prior to treatment, cells were washed with PBS. […]

For experiment [5], the system named is J774 cells. The experiment in a line: Uptake of fluorescein cargo by oligoTEAs, flow cytometry, J774. Type of experiment: cell-based. To be noted: 5 μM, 1 hr. As for the experimental part:
as §1

In experiment [6] the test system is HeLa cells. The experiment in a line: Live-cell confocal microscopy and time-lapse imaging. It is filed as cell-based, human. As for the experimental part:
Live-Cell confocal microscopy: 70,000 HeLa cells/chamber were plated in a 4-chamber 35-mm glass-bottom microwell dish ([…]) and cultured at 37° C. for 20-24 hrs. […] For co-localization experiments, cells were incubated with fluorescein conjugates along with 150 nM Transferrin-Alexa Fluor 647, or 150 μM Dextran-Alexa Fluor 647 for 1 hr at 37° C. Cells were gently washed 3 times with PBS, and FluoroBrite DMEM Media supplemented with 10% FBS was added to each chamber for imaging. Images were taken on a Zeiss LSM880 live-cell confocal/multiphoton inverted microscope, equipped with a 63× oil objective, with 488-nm and 633-nm lasers enabled for fluorescein and Transferrin-Alexa Fluor 647/Dextran-Alexa Fluor 647, respectively. Images were processed using Fiji software. Time-lapse live-cell imaging: 70,000 HeLa cells/chamber were plated in a 4-chamber 35-mm glass-bottom microwell dish ([…]) and cultured at 37° C. for 20-24 hrs. […] Images were taken on a Zeiss LSM880 live-cell confocal/multiphoton inverted microscope, equipped with a 63× oil objective, with 488-nm laser enabled for fluorescein. Images were processed using Fiji software.

In experiment [7] the test system is HEK293 cells. The experiment in a line: Cellular uptake of fluorescein conjugates by flow cytometry, HEK293. Type of experiment: cell-based, human. As for the experimental part:
as §2, §3, §4, §5, §6

In general, inhibition refers to the percentage by which the read-out fell short of the control. For the compound `O=C(O)c1cn(C2CC2)c2cc(N3CCNCC3)c(F)cc2c1=O` [Ciprofloxacin], the inhibition at 30 µM in experiment [1] (Listeria monocytogenes, DPL1942, J774, 4 h, read-out: inhibition of bacteria growth) was greater than 80%.

Turning to `CN[C@H](CC(C)C)C(=O)N[C@H]1C(=O)N[C@@H](CC(N)=O)C(=O)N[C@H]2C(=O)N[C@H]3C(=O)N[C@H](C(=O)N[C@H](C(=O)O)c4cc(O)cc(O)c4-c4cc3ccc4O)[C@H](O)c3ccc(c(Cl)c3)Oc3cc2cc(c3O[C@@H]2O[C@H](CO)[C@@H](O)[C@H](O)[C@H]2O[C@H]2C[C@](C)(N)[C@H](O)[C@H](C)O2)Oc2ccc(cc2Cl)[C@H]1O` [vancomycin], the “inhibition of bacteria growth” value in experiment [1] (30 μM, 4 hrs treatment, 14th hour of growth curve) was “little to no effect on bacteria growth”.

As for “Ac-RRRRRRRRRK-Am (Ac-RRRRRRRRRK-NH2) [R9, widely used cationic CPP, purchased from GenScript]”, the “trend of uptake of fluorescein cargo” value in experiment [2] and in experiment [5] was “R9 (PEG-Bu)4>(BDT-PEG)4>(BDT-PEG4)4˜(PEG-PEG)4” in each case. The “temperature dependence of uptake, 4° C. vs 37° C.” value in experiment [3], in experiment [4] and in experiment [7] was “weaker dependence on temperature” in each case. Also, the “increase of uptake in the absence of serum” value in experiment [3] (Opti-MEM vs DMEM with 10% FBS) is reported as 2 fold. Further, the “effect of endocytosis inhibitors on uptake” value is “dependence on clathrin in HeLa cells and macropinocytosis in both HEK293 and HeLa cells” in experiment [3] (chlorpromazine (clathrin), filipin III (caveolae), cytochalasin D (macropinocytosis)); “macropinocytosis in both HEK293 and HeLa cells” in experiment [7] (chlorpromazine, filipin III, cytochalasin D). Also, in experiment [3] (conjugate pretreated with heparin sulfate 30 mins), the “decrease of uptake in the presence of heparin sulfate” value was determined as 6 fold. In addition, the subcellular distribution entry in experiment [6] (5 μM fluorescein conjugate, 1 hr, 63×) is “primarily as punctate spots”.

For the compound fluorescein acid, the “internalization in time-lapse live cell imaging” value in experiment [6] (2.5 μM, trypan blue present, 60 mins) is “no internalization”.
